The source of these data is patent US20230414626A1, “INDUCTION OF FERROPTOSIS FOR CANCER THERAPY” (Memorial Sloan Kettering Cancer Center, priority 2020, published 2023).

The subject of the test is PI3K-mutated BT474 breast cancer xenograft tumors. The test can be described thus: In vivo xenograft mouse model, GPX4-iKO BT474. The note with it: nu/nu mice, CCI-779 2 mg/kg daily i.p., Dox diet induces GPX4 knockout. The protocol: FIG. 6 A-F. Combination of mTORC1 inhibition with ferroptosis induction leads to tumor regression in vivo. (A) CRISPR/Cas9-mediated, Dox-induced GPX4 knockout (GPX4-iKO) in BT474 cells, monitored by western blot. (B) Images of resected tumors from mice xenografted with GPX4-iKO BT474 cells. Groups of mice were treated with CCI-779 and/or Dox as indicated (n=6 per group). See Methods for detail. (C) Representative haematoxylin and eosin (H&E) and immunostaining images of GPX4, Ki67, PTGS2 and pS235/236 S6, all counterstained with haematoxylin (blue), are shown from sections of xenografted tumors. Scale bar, 50 μm. (D) Growth curves of BT474 tumors of each group. […]
FIG. 13 A-E. Combination of mTORC1 inhibition with ferroptosis induction leads to tumor regression. […] (B) BT474 tumor volume was measured every day for each mouse. […] (E) PC-3 tumor volume was measured every day for each mouse. […]
17-β-estradiol 60-day release pellets were implanted subcutaneously into the left flank 7 days before tumor inoculation. […] Tumor growth was monitored regularly via external caliper measurements. […] The maximum width (X) and length (Y) of the tumor were measured every day and the volume (V) was calculated using the formula: V=(X2Y)/2. Tumor growth was monitored over time. For all experiments, mice were sacrificed at a pre-determined endpoint. […]

Consider `CO[C@H]1C[C@@H]2CC[C@@H](C)[C@@](O)(O2)C(=O)C(=O)N2CCCC[C@H]2C(=O)O[C@H]([C@H](C)C[C@@H]2CC[C@@H](OC(=O)C(C)(CO)CO)[C@H](OC)C2)CC(=O)[C@H](C)/C=C(\C)[C@@H](O)[C@@H](OC)C(=O)[C@H](C)C[C@H](C)/C=C/C=C/C=C/1C` [CCI-779, Temsirolimus], for which the tumor growth entry is given as “decelerated tumor growth”.
